Laboratory results taken from patent US20240041042A1, “1-(PYRIDYL)-5-AZINYLPYRAZOLE DERIVATIVES, AND THEIR USE FOR CONTROL OF UNDESIRED PLANT GROWTH” (Bayer Aktiengesellschaft, priority 2020, published 2024).
Like-named read-outs stand apart in the source and are kept apart here. Each block holds one compound with its values, some of them ahead of it.

How the values were obtained:
Assay type in all cases: in vivo
[1] = tested on: Echinochloa crus-galli (ECHCG); experiment: Pre-emergence herbicidal action against ECHCG; conditions: dosage 320 g/ha
How it was run: (§1)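 Herbicide applied to soil before seedling emergence, at 600 l/ha spray volume with 0.5% additive and rates up to 320 g/ha. Evaluation: visual percentage effect, about 3 weeks later, greenhouse-grown pots compared with untreated ones.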

[2] = tested on: Matricaria inodora (MATIN); experiment: Pre-emergence herbicidal action against MATIN; conditions: dosage 320 g/ha
How it was run: as §1

[3] = tested on: Setaria viridis (SETVI); experiment: Pre-emergence herbicidal action against SETVI; conditions: dosage 320 g/ha
How it was run: as §1

[4] = tested on: Brassica napus (BRSNW); conditions: crop plant compatibility, in comparison to untreated controls
How it was run: (§2)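 Scoring: visual, % of untreated control, about 3 weeks after a pre-emergence application to the soil surface. Application used WP or EC formulations diluted in water with 0.5% additive at 600 l/ha; dosage levels are marked by suffixes a, b and c.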

[5] = tested on: Glycine max (GLXMA); conditions: pre-emergence, crop plant compatibility, in comparison to untreated controls
How it was run: as §2

[6] = tested on: Oryza sativa (ORYSA); conditions: pre-emergence, 80 g/ha, crop plant compatibility, in comparison to untreated controls
How it was run: as §2

[7] = tested on: Triticum aestivum (TRZAS); conditions: pre-emergence, crop plant compatibility, in comparison to untreated controls
How it was run: as §2

[8] = tested on: Echinochloa crus-galli (ECHCG); experiment: Post-emergence herbicidal action against ECHCG; conditions: dosage 320 g/ha
How it was run: (§3)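 Rates were 320 g/ha or below, applied as aqueous WP/EC spray with 0.5% additive (600 l/ha) onto one-leaf-stage plants. About 3 weeks later in the greenhouse, damage was scored visually against untreated plants on a 0–100% scale, where 100% means plants died.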

[9] = tested on: Viola tricolor (VIOTR); experiment: Post-emergence herbicidal action against VIOTR; conditions: 320 g/ha
How it was run: as §3

[10] = tested on: Oryza sativa (ORYSA); conditions: crop plant compatibility
How it was run: (§4)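 Foliar application at the one-leaf stage: WP/EC formulation, 0.5% additive, 600 l/ha water. Greenhouse-grown in sandy loam. Endpoint is visual % injury relative to untreated controls at about 3 weeks.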

[11] = tested on: Glycine max (GLXMA); experiment: Post-emergence crop plant compatibility, GLXMA; conditions: for Post-emergence action against GLXMA in %: 80 g/ha, effect in comparison to untreated controls
Protocol: (§5) Seeds of monocotyledonous and dicotyledonous weeds and crop plants are placed in sandy loam in plastic or organic planting pots, covered with soil and cultivated in a greenhouse under controlled growth conditions. 2 to 3 weeks after sowing, the test plants are treated at the one-leaf stage. The compounds of the invention, formulated in the form of wettable powders (WP) or as emulsion concentrates (EC), are then sprayed onto the green parts of the plants as aqueous suspension or emulsion with addition of 0.5% additive at a water application rate of 600 l/ha (converted). After the test plants have been kept in the greenhouse under optimum growth conditions for about 3 weeks, the activity of the preparations is rated visually in comparison to untreated controls. For example, 100% activity=the plants have died, 0% activity=like control plants.
(§6) The observed effects on selected crop plants are reported here in comparison to the untreated controls (values in %). The appendices “a”, “b” and “c” give differentiation by dosage used with otherwise the same crop plants tested.

[12] = tested on: Verconica persica (VERPE); experiment: Pre-emergence herbicidal action against VERPE; conditions: dosage 80 g/ha
How it was run: as §1

[13] = tested on: Zea mays (ZEAMX); conditions: pre-emergence, 80 g/ha, crop plant compatibility, in comparison to untreated controls
How it was run: as §2

[14] = tested on: Alopecurus myosuroides (ALOMY); experiment: Post-emergence herbicidal action against ALOMY; conditions: 80 g/ha, visual rating about 3 weeks after treatment vs untreated controls (100% = plants have died, 0% = like control plants)
How it was run: as §3

[15] = tested on: Triticum aestivum (TRZAS); conditions: crop plant compatibility, effect vs untreated controls
How it was run: as §4

[16] = tested on: Zea mays (ZEAMX); conditions: for Post-emergence action against ZEAMX in %: crop plant compatibility, effect vs untreated controls
How it was run: as §4

[17] = tested on: Brassica napus (BRSNW); experiment: Post-emergence crop plant compatibility, BRSNW; conditions: effect in comparison to untreated controls
Protocol: as §5, §6

[18] = tested on: Amaranthus retroflexus (AMARE); experiment: Pre-emergence herbicidal action against AMARE; conditions: 320 g/ha, visual scoring after about 3 weeks vs untreated controls
How it was run: as §1

[19] = tested on: Amaranthus retroflexus (AMARE); experiment: Post-emergence herbicidal action against AMARE
How it was run: as §3

[20] = tested on: Polygonum convolvulus (POLCO); experiment: Post-emergence herbicidal action against POLCO; conditions: dosage 320 g/ha
How it was run: as §3

[21] = tested on: Setaria viridis (SETVI); experiment: Post-emergence herbicidal action against SETVI; conditions: dosage 320 g/ha
How it was run: as §3

[22] = 80 g/ha, effect in comparison to untreated controls

Pre-emergence action against BRSNW in % ([4]; 80 g/ha): 20%
Pre-emergence action against BRSNW in % ([4]; 320 g/ha): 20%
Pre-emergence action against GLXMA in % ([5]; 80 g/ha): 0%
Pre-emergence action against ORYSA in % [6]: 0%
Pre-emergence action against TRZAS in % ([7]; 80 g/ha): 0%
Pre-emergence action against TRZAS in % ([7]; 320 g/ha): 20%
Post-emergence action against ORYSA in % [10, 22]: 20%
Post-emergence action against GLXMA in % [11]: 0%
SMILES: CCOC(=O)CCNC(=O)CSc1nn(-c2ccccn2)c(-c2cncc(F)c2)c1Br [Example I-82]
Pre-emergence action against ECHCG in % [1]: 90%
Pre-emergence action against MATIN in % [2]: 90%
Pre-emergence action against SETVI in % [3]: 90%
Post-emergence action against ECHCG in % [8]: 80%
Post-emergence action against VIOTR in % [9]: 80%

Pre-emergence action against BRSNW in % ([4]; 80 g/ha): 20%
Pre-emergence action against ORYSA in % [6]: 10%
Pre-emergence action against ZEAMX in % [13]: 10%
Post-emergence action against ORYSA in % ([10]; 20 g/ha, effect vs untreated controls): 0%
Post-emergence action against ORYSA in % [10, 22]: 10%
Post-emergence action against TRZAS in % ([15]; 20 g/ha): 0%
Post-emergence action against ZEAMX in % (crop plant compatibility) ([16]; 20 g/ha, ZEAMX, effect in comparison to untreated controls): 10%
Post-emergence action against ZEAMX in % ([16]; 80 g/ha): 10%
Post-emergence action against BRSNW in % ([17]; 20 g/ha): 10%
Post-emergence action against BRSNW in % ([17]; 80 g/ha): 20%
SMILES: COC(=O)C1CCCN1C(=O)COc1nn(-c2ccccn2)c(-c2ccc(F)nc2)c1Br (stereo not drawn) [Example I-110]
Pre-emergence action against VERPE in % [12]: 100%
Post-emergence action against ALOMY in % [14]: 80%

Pre-emergence action against BRSNW in % ([4]; 80 g/ha): 0%
Pre-emergence action against GLXMA in % ([5]; 80 g/ha): 0%
Pre-emergence action against GLXMA in % ([5]; 320 g/ha): 0%
Pre-emergence action against ORYSA in % [6]: 20%
Pre-emergence action against TRZAS in % ([7]; 80 g/ha): 0%
Pre-emergence action against TRZAS in % ([7]; 320 g/ha): 0%
Post-emergence action against ORYSA in % [10, 22]: 0%
Post-emergence action against ORYSA in % ([10]; 320 g/ha, effect in comparison to untreated controls): 0%
Post-emergence action against TRZAS in % ([15]; 80 g/ha): 0%
Post-emergence action against TRZAS in % ([15]; 320 g/ha): 10%
Post-emergence action against ZEAMX in % ([16]; 80 g/ha): 0%
Post-emergence action against ZEAMX in % ([16]; 320 g/ha): 0%
Post-emergence action against GLXMA ([11]; 320 g/ha, effect vs untreated controls): 0%
Post-emergence action against GLXMA in % [11]: 0%
SMILES: CCOC(=O)C[S+]([O-])c1nn(-c2ccccn2)c(-c2cncc(F)c2)c1Cl (stereo not drawn) [Example I-150]
Pre-emergence action against AMARE in % [18]: 80%
Post-emergence action against AMARE in % ([19]; 80 g/ha, visual rating about 3 weeks after treatment vs untreated controls (100% = plants have died, 0% = like control plants)): 80%
Post-emergence action against AMARE in % ([19]; 320 g/ha, visual rating about 3 weeks after treatment): 80%
Post-emergence action against POLCO in % [20]: 90%
Post-emergence action against SETVI in % [21]: 80%
Post-emergence action against VIOTR in % [9]: 80%
